From patent US5677296A, “Carbamic acid derivatives of substituted dibenzoxazepine compounds, pharmaceutical compositions and methods of use” (G.D. Searle & Co., priority 1995, dated 1997)

Assays:
[1] = tested on: prostaglandin E2-induced contractions of guinea pig ileum; assay: Prostaglandin (PGE) Antagonism Assay (inhibition of prostaglandin E2-induced contractions of segments of guinea pig ileum); settings: for PGE2 antagonism in guinea pig ileum: Dose Ratio at 3 × 10^-6 M: test compound 3 × 10^-6 M, 30 min incubation, dose ratio of PGE2 EC50 values, average where more than one determined
Experimental: (b) Prostaglandin (PGE) Antagonism Assay
In order to determine the effectiveness of several of the compounds of the present invention ("test compounds") as prostaglandin E2 antagonists,a prostaglandin antagonism assay was conducted, as described below, to determine the ability of these compounds to inhibit prostaglandin E2 -induced contractions of segments of guinea pig ileum.
Male albino guinea pigs weighing 200 to 500 grams were sacrificed by cervical dislocation. The ilea were then quickly removed from the guinea pigs and placed in a modified Tyrode solution, a solution which is known to those skilled in the art, containing one-half of the usual amount of magnesium ions.
Segments of ileum about 2 cm long were then cut and mounted in a 10 mL tissue bath containing the modified Tyrode solution. The solution was maintained at 37° C. and aerated with a gaseous mixture of 95% oxygen and 5% carbon dioxide. Data for a control prostaglandin E2 dose response curve plotting concentration of prostaglandin E2 versus the intensity of contractions, detected isotonically, was then obtained by experimentally adjusting the dose of the prostaglandin E2 being injected into the tissue bath, in a manner known by those of skill in the art.
Solutions or suspensions containing an initial concentration (3 micromolar) of a test compound in modified Tyrode solution ("test solutions/suspensions") were then separately substituted for the control bath solution. Each test solution/suspension was then kept in constant contact with the ileum tissue, except for brief periods to drain the bath in preparation for rinsing with fresh test solution/suspension. A second prostaglandin E2 dose response curve was then generated for prostaglandin E2 in the presence of a test compound.
A control dose response curve is produced in isolated segments of guinea pig ileum mounted in an automated apparatus with six concentrations of prostaglandin E2. A solution or suspension of test compound is substituted for the control bathing solution and is incubated for thirty minutes. An additional prostaglandin E2 dose response curve is then performed in the presence of the test compound. A dose ratio is calculated from the EC50 values obtained from duplicate replications on each concentration of the test compound.
A dose ratio of EC50 doses was calculated from the results of each test in a manner known by those of skill in the art, and described above.
The dose ratios reported in Table 1 represent an average of multiple dose ratios for those compounds for which more than one dose ratio was determined. The compounds of the present invention which were tested in this assay, and for which results are presented in Table 1, correspond to the particular examples specified in Table 1.
The pA2 value (a statistical constant which is a common measure of expressing the potency of a particular drug as a competitive antagonist), rather than the dose ratio, was calculated for the test compound shown and described in Example 6 by schild plot calculations, as described by H. O. Schild, "pA, A New Scale for the Measurement of Drug Antagonism," Br. J. Pharmacol, 2, 189 (1947), and is reported in Table 1.

[2] = tested on: phenylbenzoquinone (PBQ)-induced writhing in mice; assay: Writhing Assay (PBQ-induced writhing in mice, analgesic activity); type: in vivo, mouse (Charles River male albino mice); settings: 30 mpk, i.g., 30 min before PBQ i.p., fraction of mice
Excerpt: The Writhing Assay is one of the most widely-used experimental procedures for measuring the analgesic activity of different narcotic and nonnarcotic analgesic agents, and involves the continuous, chemically-induced pain of visceral origin to an animal, such as a mouse or rat. [Gyires et al., Arch. int. Pharmacodyn, 267, 131-140 (1984); C. Vander Wende et al., Fed. Proc., 15, 494 (1956); Koster et al., Fed. Proc., 18, 412 (1959); and Witken et al., J. Pharmacol. exp. Ther., 133, 400-408 (1961).] Chemicals which may be used to induce this pain include phenylbenzoquinone (PBQ) and acetic acid. As a result of the chemical irritation to the animal, a characteristic stretching and writhing of the animal (dorsiflexion of the animal's back, extension of its hindlimbs and the strong contraction of its abdominal musculature) will generally occur. […] Drugs which reduce the number of writhes of the animal appear to restore the normal nociceptive threshold of the animal.
Charles River male albino mice, weighing 20 to 30 grams, were used in this assay.
Thirty minutes after intragastric administration to ten mice of 30 mg per kilogram of body weight of a compound of the present invention ("test compound"), […] per 10 g of body weight of a 0.025% w/v solution of PBQ was injected intraperitoneally into each mouse. Ten mice which were given saline in place of a test compound of the invention were used as a control group.
Five minutes later, each mouse was individually placed into a glass beaker for observation, and the number of writhes occurring during the following ten-minute period was counted.
A test compound was considered to have produced analgesia in a mouse if, in accordance with the conditions set forth above, and under the test criteria employed for this assay, after the administration of 30 mg per kilogram of body weight of a compound of the present invention to the mouse, the number of writhes elicited by a mouse injected with PBQ was equal to, or less than, one-half the median number of writhes recorded for the saline-treated control group of mice that day, as described by Taber in "Predictive Value of Analgesic Assays in Mice and Rats," Advances in Biochemical Psychopharmacology, 8, 191 (1974).
The results for the particular compounds of the present invention analyzed in this assay, and discussed in the examples identified below which correspond thereto, are presented in Table 1 hereinbelow as fractions under the heading "WRITHING ASSAY." The fractions indicate the number of mice out of eight or ten in which a test compound produced analgesia.
The standard initial screening dose of a test compound employed in this assay was 30 mpk […]. Generally, if this initial screening dose of the test compound produced analgesia in seven out of ten mice, then the effect of additional doses of the test compound on the writhing response was evaluated, and then the ED50 dose was generally calculated. (The slopes of the dose-response curves for all test compounds analyzed were compared as described by Tallarida and Murray, Manual of Pharmacologic Calculations, Page 11 (Springer Verlag, New York, 1981)).
All ED50 doses calculated are also presented in Table 1 hereinbelow under the heading "WRITHING ASSAY," but as whole numbers.

| Compound | PGE2 antagonism in guinea pig ileum: Dose Ratio at 3 × 10^-6 M [1] | Writhing assay: number of mice out of eight or ten in which test compound produced analgesia [2] | PGE2 antagonism in guinea pig ileum: PA2 Value ([1]; Schild plot) |
| --- | --- | --- | --- |
| O=C1OC(c2ccccn2)C2c3ccccc3Oc3ccc(Cl)cc3N12 (stereo not drawn) [Compound 10, 6-chloro-1,13b-dihydro-1-(2-pyridyl)-3H-dibenz-[b,f]oxazolo[3,4-d][1,4]oxazepin-3-one] | 28.94 | 1/10 | – |
| O=C1O[C@@H](c2ccncc2)[C@@H]2c3ccccc3Oc3ccc(Cl)cc3N12 (relative stereo) [Compound 6, trans-6-chloro-1,13b-dihydro-1-(4-pyridyl)-3H-dibenz-[b,f]oxazolo[3,4-d][1,4]oxazepin-3-one] | – | 5/10 | 7.15 |
| O=C1O[C@@H](c2ccncc2)[C@H]2c3ccccc3Oc3ccc(Cl)cc3N12 (relative stereo) [Compound 7, cis-6-chloro-1,13b-dihydro-1-(4-pyridyl)-3H-dibenz[b,f]oxazolo-[3,4-d][1,4]oxazepin-3-one] | 1.5 | 9/10 | – |
| O=C1OC(c2ccccc2)C2c3ccccc3Oc3ccc(Cl)cc3N12 (single isomer, unassigned) [Compound 3, 6-chloro-1,13b-dihydro-1-phenyl-3H-dibenz[b,f]oxazolo-[3,4-d][1,4]oxazepin-3-one] | 43.6 | 3/10 | – |
| O=C1O[C@@H](c2ccccn2)[C@@H]2c3ccccc3Oc3ccc(Cl)cc3N12 (relative stereo) [Compound 11, cis-6-chloro-1,13b-dihydro-1-(2-pyridyl)-3H-dibenz[b,f]oxazolo[3,4-d][1,4]-oxazepin-3-one] | 8.6 | 2/8 | – |
| O=C1OC(c2ccccc2)C2c3ccccc3Oc3ccc(Cl)cc3N12 (single isomer, unassigned) [Compound 4, 6-chloro-1,13b-dihydro-1-phenyl-3H-dibenz[b,f]oxazolo-[3,4-d][1,4]oxazepin-3-one] | 0.87 | 3/10 | – |
